Test results as given in patent US12545639B2, “3-substituted phenylamidine compounds, preparation and use thereof” (PI INDUSTRIES LTD., priority 2019, dated 2026).

How the values were obtained:
Colletotrichum capsici = Colletotrichum capsici (anthracnose) in vitro test, radial growth on potato dextrose agar; type: cell-based; details: Colletotrichum truncatum, 168 h; 300 ppm in potato dextrose agar; 25° C., 60% relative humidity, seven days; read-out: control compared to the untreated check (radial growth)
Alternaria solani = Alternaria solani (early blight of tomato/potato) in vitro test, radial growth on potato dextrose agar; type: cell-based; details: 168 h, 300 ppm in potato dextrose agar, 25° C., 60% relative humidity, seven days, read-out: control compared to the untreated check (radial growth)
Pyricularia oryzae = assay: microbe, parasite or virus in culture; type: cell-based; details: 168 h, read-out: control compared to the untreated check (radial growth)
[1] = system: Septoria lycopersici/Corynespora cassicola (CORYCA); assay: Septoria lycopersici/Corynespora cassicola (CORYCA) (leaf spot of tomato) in vitro test, radial growth on potato dextrose agar; type: cell-based; details: 168 h, 300 ppm in potato dextrose agar, 25° C., 70% relative humidity, seven days, read-out: control compared to the untreated check (radial growth)
Rhizoctonia solani = Rhizoctonia solani (rice sheath blight/potato black scurf) in vitro test, radial growth on potato dextrose agar; type: cell-based; details: 168 h, 300 ppm in potato dextrose agar, 25° C., 60% relative humidity, seven days, read-out: control compared to the untreated check (radial growth)
Botrytis cinerea = Botrytis cinerea (gray mold) in vitro test, radial growth on potato dextrose agar; type: cell-based; details: 168 h, 300 ppm in potato dextrose agar, 22° C., 90% relative humidity, seven days, read-out: control compared to the untreated check (radial growth)
Phakopsora pachyrhizi = Phakopsora pachyrhizi test in soybean, preventive, in vivo on plants; details: in Glycine max, read-out: Efficacy (% control), disease severity compared to the untreated check

CCN(C)C=Nc1cc(F)cc(Nc2ccc3ncsc3c2)c1C [Compound 225, N′-(3-(benzo[d]thiazol-6-ylamino)-5-fluoro-2-methylphenyl)-N-ethyl-N-methylformimidamide]
≥ 70%: inhibition of growth at 300 ppm (Colletotrichum capsici) | inhibition of growth at 300 ppm (Alternaria solani) | inhibition of growth at 300 ppm (Pyricularia oryzae)

CCN(C)C=Nc1cc(F)cc(Cc2ccccc2C)c1C [Compound 148, N-ethyl-N′-(5-fluoro-2-methyl-3-(2-methylbenzyl)phenyl)-N-methylformimidamide]
≥ 70%: inhibition of growth at 300 ppm [1] | inhibition of growth at 300 ppm (Rhizoctonia solani) | inhibition of growth at 300 ppm (Botrytis cinerea) | inhibition of growth at 300 ppm (Alternaria solani) | inhibition of growth at 300 ppm (Pyricularia oryzae) | pest or weed control at 500 ppm (Phakopsora pachyrhizi)

CCN(C)C=Nc1cc(F)cc(N(C)c2c(C)cccc2F)c1C [Compound 145, N-ethyl-N′-(5-fluoro-3-((2-fluoro-6-methylphenyl)(methyl)amino)-2-methylphenyl)-N-methylformimidamide]
≥ 70%: inhibition of growth at 300 ppm [1] | inhibition of growth at 300 ppm (Rhizoctonia solani) | inhibition of growth at 300 ppm (Botrytis cinerea) | inhibition of growth at 300 ppm (Alternaria solani) | inhibition of growth at 300 ppm (Pyricularia oryzae) | pest or weed control at 500 ppm (Phakopsora pachyrhizi)

CCN(C)C=Nc1cc(C)cc(Cc2cccc(C#N)c2)c1Cl [Compound 48, N′-(2-chloro-3-(3-cyanobenzyl)-5-methylphenyl)-N-ethyl-N-methylformimidamide]
≥ 70%: inhibition of growth at 300 ppm (Colletotrichum capsici) | inhibition of growth at 300 ppm (Rhizoctonia solani) | inhibition of growth at 300 ppm (Alternaria solani) | inhibition of growth at 300 ppm (Pyricularia oryzae)

CCN(C)C=Nc1cc(C)cc(N(C)c2ccc(Cl)cc2F)c1Cl [Compound 156, N′-(2-chloro-3-((4-chloro-2-fluorophenyl)(methyl)amino)-5-methylphenyl)-N-ethyl-N-methylformimidamide]
≥ 70%: inhibition of growth at 300 ppm (Colletotrichum capsici) | inhibition of growth at 300 ppm (Alternaria solani) | pest or weed control at 500 ppm (Phakopsora pachyrhizi)

CCN(C)C=Nc1cc(C)cc(N(C)c2ccccc2F)c1C [Compound 7, N-ethyl-N′-(3-((2-fluorophenyl)(methyl)amino)-2,5-dimethylphenyl)-N-methylformimidamide]
≥ 70%: inhibition of growth at 300 ppm (Colletotrichum capsici) | inhibition of growth at 300 ppm (Rhizoctonia solani) | inhibition of growth at 300 ppm (Alternaria solani) | inhibition of growth at 300 ppm (Pyricularia oryzae)

CCN(C)C=Nc1cc(F)cc(N(C)c2cccc(OC)c2)c1C [Compound 39, N-ethyl-N′-(5-fluoro-3-((3-methoxyphenyl)(methyl)amino)-2-methylphenyl)-N-methylformimidamide]
≥ 70%: inhibition of growth at 300 ppm (Colletotrichum capsici) | inhibition of growth at 300 ppm (Alternaria solani) | inhibition of growth at 300 ppm (Pyricularia oryzae) | pest or weed control at 500 ppm (Phakopsora pachyrhizi)

CCN(C)C=Nc1cc(C)cc(Nc2ccc(OC)cc2)c1Cl [Compound 61, N′-(2-chloro-3-((4-methoxyphenyl)amino)-5-methylphenyl)-N-ethyl-N-methylformimidamide]
≥ 70%: inhibition of growth at 300 ppm (Colletotrichum capsici) | inhibition of growth at 300 ppm (Rhizoctonia solani) | inhibition of growth at 300 ppm (Alternaria solani) | inhibition of growth at 300 ppm (Pyricularia oryzae)

CCN(C)C=Nc1cc(F)cc(Cc2ccc(Cl)c(F)c2)c1C [Compound 206, N′-(3-(4-chloro-3-fluorobenzyl)-5-fluoro-2-methylphenyl)-N-ethyl-N-methylformimidamide]
≥ 70%: inhibition of growth at 300 ppm [1] | inhibition of growth at 300 ppm (Rhizoctonia solani) | inhibition of growth at 300 ppm (Botrytis cinerea) | inhibition of growth at 300 ppm (Alternaria solani) | inhibition of growth at 300 ppm (Pyricularia oryzae) | pest or weed control at 500 ppm (Phakopsora pachyrhizi)

CCN(C)C=Nc1cc(Cl)cc(Nc2cccc(C(F)(F)F)n2)c1C [Compound 274, N′-(5-chloro-2-methyl-3-((6-(trifluoromethyl)pyridin-2-yl)amino)phenyl)-N-ethyl-N-methylformimidamide]
≥ 70%: inhibition of growth at 300 ppm [1] | inhibition of growth at 300 ppm (Rhizoctonia solani) | inhibition of growth at 300 ppm (Botrytis cinerea) | inhibition of growth at 300 ppm (Alternaria solani) | inhibition of growth at 300 ppm (Pyricularia oryzae) | pest or weed control at 500 ppm (Phakopsora pachyrhizi)

CCN(C)C=Nc1cc(F)cc(Cc2ccccc2Br)c1C [Compound 151, N′-(3-(2-bromobenzyl)-5-fluoro-2-methylphenyl)-N-ethyl-N-methylformimidamide]
≥ 70%: inhibition of growth at 300 ppm [1] | inhibition of growth at 300 ppm (Rhizoctonia solani) | inhibition of growth at 300 ppm (Botrytis cinerea) | inhibition of growth at 300 ppm (Alternaria solani) | inhibition of growth at 300 ppm (Pyricularia oryzae) | pest or weed control at 500 ppm (Phakopsora pachyrhizi)

CCN(C)C=Nc1cc(F)cc(Cc2ccccc2)c1C [Compound 149, N′-(3-benzyl-5-fluoro-2-methylphenyl)-N-ethyl-N-methylformimidamide]
≥ 70%: inhibition of growth at 300 ppm [1] | inhibition of growth at 300 ppm (Rhizoctonia solani) | inhibition of growth at 300 ppm (Botrytis cinerea) | inhibition of growth at 300 ppm (Alternaria solani) | inhibition of growth at 300 ppm (Pyricularia oryzae) | pest or weed control at 500 ppm (Phakopsora pachyrhizi)

CCN(C)C=Nc1cc(F)cc(Cc2cc(F)cc(OC)c2)c1C [Compound 237, N-ethyl-N′-(5-fluoro-3-(3-fluoro-5-methoxybenzyl)-2-methylphenyl)-N-methylformimidamide]
≥ 70%: inhibition of growth at 300 ppm [1] | inhibition of growth at 300 ppm (Rhizoctonia solani) | inhibition of growth at 300 ppm (Botrytis cinerea) | inhibition of growth at 300 ppm (Alternaria solani) | inhibition of growth at 300 ppm (Pyricularia oryzae) | pest or weed control at 500 ppm (Phakopsora pachyrhizi)

CCN(C)C=Nc1cc(F)cc(Cc2cccc(C)c2)c1C [Compound 146, N-ethyl-N′-(5-fluoro-2-methyl-3-(3-methylbenzyl)phenyl)-N-methylformimidamide]
≥ 70%: inhibition of growth at 300 ppm [1] | inhibition of growth at 300 ppm (Rhizoctonia solani) | inhibition of growth at 300 ppm (Botrytis cinerea) | inhibition of growth at 300 ppm (Alternaria solani) | inhibition of growth at 300 ppm (Pyricularia oryzae) | pest or weed control at 500 ppm (Phakopsora pachyrhizi)

CCN(C)C=Nc1cc(Cl)cc(N(C)c2ccccc2C)c1C [Compound 191, N′-(5-chloro-2-methyl-3-(methyl(o-tolyl)amino)phenyl)-N-ethyl-N-methylformimidamide]
≥ 70%: inhibition of growth at 300 ppm [1] | inhibition of growth at 300 ppm (Rhizoctonia solani) | inhibition of growth at 300 ppm (Botrytis cinerea) | inhibition of growth at 300 ppm (Alternaria solani) | inhibition of growth at 300 ppm (Pyricularia oryzae) | pest or weed control at 500 ppm (Phakopsora pachyrhizi)

CCN(C)C=Nc1cc(C)cc(Nc2ccc(OC)c(F)c2)c1Cl [Compound 255, N′-(2-chloro-3-((3-fluoro-4-methoxyphenyl)amino)-5-methylphenyl)-N-ethyl-N-methylformimidamide]
≥ 70%: inhibition of growth at 300 ppm (Colletotrichum capsici) | inhibition of growth at 300 ppm (Rhizoctonia solani) | inhibition of growth at 300 ppm (Alternaria solani) | inhibition of growth at 300 ppm (Pyricularia oryzae) | pest or weed control at 500 ppm (Phakopsora pachyrhizi)

CCN(C)C=Nc1cc(F)cc(Cc2cccc([N+](=O)[O-])c2)c1C [Compound 259, N-ethyl-N′-(5-fluoro-2-methyl-3-(3-nitrobenzyl)phenyl)-N-methylformimidamide]
≥ 70%: inhibition of growth at 300 ppm [1] | inhibition of growth at 300 ppm (Rhizoctonia solani) | inhibition of growth at 300 ppm (Botrytis cinerea) | inhibition of growth at 300 ppm (Alternaria solani) | inhibition of growth at 300 ppm (Pyricularia oryzae) | pest or weed control at 500 ppm (Phakopsora pachyrhizi)

CCN(C)C=Nc1cc(F)cc(Nc2cccc(F)c2)c1C [Compound 29, N-ethyl-N′-(5-fluoro-3-((3-fluorophenyl)amino)-2-methylphenyl)-N-methylformimidamide]
≥ 70%: inhibition of growth at 300 ppm [1] | inhibition of growth at 300 ppm (Rhizoctonia solani) | inhibition of growth at 300 ppm (Botrytis cinerea) | inhibition of growth at 300 ppm (Alternaria solani) | inhibition of growth at 300 ppm (Pyricularia oryzae) | pest or weed control at 500 ppm (Phakopsora pachyrhizi)

CCN(C)C=Nc1cc(F)cc(Cc2cccc(F)c2)c1C [Compound 147, N-ethyl-N′-(5-fluoro-3-(3-fluorobenzyl)-2-methylphenyl)-N-methylformimidamide]
≥ 70%: inhibition of growth at 300 ppm [1] | inhibition of growth at 300 ppm (Rhizoctonia solani) | inhibition of growth at 300 ppm (Botrytis cinerea) | inhibition of growth at 300 ppm (Alternaria solani) | inhibition of growth at 300 ppm (Pyricularia oryzae) | pest or weed control at 500 ppm (Phakopsora pachyrhizi)

CCN(C)C=Nc1cc(OC)cc(Cc2cccc(C(F)(F)F)c2)c1C [Compound 296, N-ethyl-N′-(5-methoxy-2-methyl-3-(3-(trifluoromethyl)benzyl)phenyl)-N-methylformimidamide]
≥ 70%: inhibition of growth at 300 ppm [1] | inhibition of growth at 300 ppm (Rhizoctonia solani) | inhibition of growth at 300 ppm (Botrytis cinerea) | inhibition of growth at 300 ppm (Alternaria solani) | inhibition of growth at 300 ppm (Pyricularia oryzae) | pest or weed control at 500 ppm (Phakopsora pachyrhizi)

CCN(C)C=Nc1cc(C)cc(N(C)c2cccc(C)c2F)c1Cl [Compound 139, N′-(2-chloro-3-((2-fluoro-3-methylphenyl)(methyl)amino)-5-methylphenyl)-N-ethyl-N-methylformimidamide]
≥ 70%: inhibition of growth at 300 ppm (Colletotrichum capsici) | inhibition of growth at 300 ppm (Pyricularia oryzae)

CCN(C)C=Nc1cc(F)cc(Nc2ccc(OC)c(F)c2)c1C [Compound 254, N-ethyl-N′-(5-fluoro-3-((3-fluoro-4-methoxyphenyl)amino)-2-methylphenyl)-N-methylformimidamide]
≥ 70%: inhibition of growth at 300 ppm (Colletotrichum capsici) | inhibition of growth at 300 ppm (Rhizoctonia solani) | inhibition of growth at 300 ppm (Alternaria solani) | inhibition of growth at 300 ppm (Pyricularia oryzae)

CCN(C)C=Nc1cc(C)cc(Cc2ccccc2)c1Cl [Compound 70, N′-(3-benzyl-2-chloro-5-methylphenyl)-N-ethyl-N-methylformimidamide]
≥ 70%: inhibition of growth at 300 ppm [1] | inhibition of growth at 300 ppm (Rhizoctonia solani) | inhibition of growth at 300 ppm (Botrytis cinerea) | inhibition of growth at 300 ppm (Alternaria solani) | inhibition of growth at 300 ppm (Pyricularia oryzae) | pest or weed control at 500 ppm (Phakopsora pachyrhizi)

CCN(C)C=Nc1cc(C)cc(Nc2ccc(F)cc2F)c1Cl [Compound 75, N′-(2-chloro-3-((2,4-difluorophenyl)amino)-5-methylphenyl)-N-ethyl-N-methylformimidamide]
≥ 70%: inhibition of growth at 300 ppm (Colletotrichum capsici) | inhibition of growth at 300 ppm (Rhizoctonia solani) | inhibition of growth at 300 ppm (Alternaria solani) | inhibition of growth at 300 ppm (Pyricularia oryzae)
